Experimental data as given in the supplement of paper PMC10307832.

Experiments:
Experiment in all cases: relative viability (nuclei count vs DMSO), 5 days (fraction); higher = more cells survive
[1] = compound: CC1=NC=CC(=C1)C2=CC=C(C=C2)CC(=O)NC3=CC=C(C=C3)C4=CN=CC=C4 [Wnt-C59] + CC(C)C[C@H](NC(=O)[C@H](Cc1ccccc1)NC(=O)c1cnccn1)B(O)O [Bortezomib] (partner 0.002 µM)
Summary of the method: (§1)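 Relative viability was taken as the ratio of nuclei in treated wells to nuclei in vehicle wells. Lung cancer cell lines in 1536-well plates received compounds by pin tool one day after seeding, either one drug alone or a fixed anchor-drug dose plus five library-drug doses (not always all listed) in √10 steps. Nuclei were counted on 4× images after 5 days of treatment, and values are medians of duplicate plates.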

[2] = compound: CC1=NC=CC(=C1)C2=CC=C(C=C2)CC(=O)NC3=CC=C(C=C3)C4=CN=CC=C4 [Wnt-C59] + COc1cc2c(Oc3ccc(NC(=O)C4(C(=O)Nc5ccc(F)cc5)CC4)cc3F)ccnc2cc1OCCCN1CCOCC1 [Foretinib] (partner 0.25 µM)
Summary of the method: as §1

[3] = compound: CS(=O)(=O)CCNCc1ccc(-c2ccc3ncnc(Nc4ccc(OCc5cccc(F)c5)c(Cl)c4)c3c2)o1 [Lapatinib] + CC(=O)c1c(C)c2cnc(Nc3ccc(N4CCNCC4)cn3)nc2n(C2CCCC2)c1=O [Palbociclib] (partner 0.5 µM)
Summary of the method: as §1

[4] = compound: CS(=O)(=O)CCNCc1ccc(-c2ccc3ncnc(Nc4ccc(OCc5cccc(F)c5)c(Cl)c4)c3c2)o1 [Lapatinib] + CC(C)C[C@H](NC(=O)[C@H](Cc1ccccc1)NC(=O)c1cnccn1)B(O)O [Bortezomib] (partner 0.002 µM)
Summary of the method: as §1

Cell Line | relative viability ([1]; first compound 0.001 µM) | relative viability ([1]; first compound 0.01 µM) | relative viability ([1]; first compound 0.03162 µM) | relative viability ([1]; first compound 0.1 µM) | relative viability ([2]; first compound 0.001 µM) | relative viability ([2]; first compound 0.01 µM) | relative viability ([2]; first compound 0.03162 µM) | relative viability ([2]; first compound 0.1 µM) | relative viability ([3]; first compound 0.06325 µM) | relative viability ([3]; first compound 0.2 µM) | relative viability ([3]; first compound 0.6325 µM) | relative viability ([3]; first compound 2 µM) | relative viability ([4]; first compound 0.06325 µM) | relative viability ([4]; first compound 0.2 µM) | relative viability ([4]; first compound 0.6325 µM) | relative viability ([4]; first compound 2 µM) | relative viability ([3]; first compound 0.02 µM) | relative viability ([4]; first compound 0.02 µM)
HOP-62 | 0.826 | 0.752 | 0.658 | 0.931 | 1.1 | 1.06 | 1.07 | 1.19 | 0.44 | 0.457 | 0.451 | 0.432 | 0.857 | 0.577 | 0.99 | 0.761 |  | 
LCLC-103H | 1.04 | 1.12 | 1.06 | 1.1 | 0.752 | 0.891 | 0.889 | 0.641 | 0.486 | 0.478 | 0.533 | 0.441 | 1.03 | 1.13 | 1.06 | 1.04 | 0.445 | 
Calu-6 | 0.924 | 0.99 | 1.05 | 1.07 | 0.856 | 0.903 | 0.936 | 0.834 |  |  |  |  | 0.951 | 1.03 | 1.02 | 0.906 |  | 0.887
NCI-H1650 | 0.21 | 0.219 | 0.205 | 0.219 | 1.26 | 1.2 | 1.31 | 1.08 | 0.314 | 0.379 | 0.3 | 0.299 | 0.206 | 0.223 | 0.192 | 0.243 | 0.315 | 0.203
NCI-H1703 | 0.417 | 0.271 | 0.331 | 0.42 | 0.346 | 0.279 | 0.355 | 0.348 |  |  |  |  | 0.313 | 0.317 | 0.24 | 0.32 |  | 0.316
LK-2 |  |  |  |  | 1.28 | 1.02 | 1.46 | 1.25 |  | 0.832 |  | 1.01 |  |  |  |  | 0.634 | 
LCLC-97TM1 | 0.608 | 0.878 | 0.761 | 0.919 | 1.03 | 0.949 | 1.03 | 0.896 | 0.135 | 0.248 | 0.19 | 0.233 |  | 0.515 | 0.74 | 0.819 |  | 
NCI-H1793 |  |  |  |  | 0.69 |  | 0.678 | 0.614 | 0.25 | 0.258 | 0.293 | 0.241 |  |  |  |  |  | 
SW 900 |  |  |  |  | 1.14 | 0.667 | 1.18 | 1.01 | 0.514 | 0.554 | 0.586 | 0.43 |  |  |  |  |  | 
SK-MES-1 |  |  |  |  | 0.974 | 0.81 | 0.905 | 0.918 | 0.384 | 0.326 | 0.328 | 0.299 |  |  |  |  | 0.338 | 
NCI-H2023 | 0.979 | 1.1 | 1.05 | 0.821 | 1.1 | 0.788 | 1.01 | 0.667 | 0.266 | 0.324 | 0.242 | 0.264 | 0.712 | 0.969 | 1.1 | 0.913 |  | 0.135
NCI-H1792 | 0.959 | 0.963 | 1.04 | 0.946 |  |  |  |  |  | 0.614 | 0.559 | 0.6 | 0.718 | 0.922 | 0.923 | 1.02 | 0.618 | 0.892
NCI-H661 | 0.616 | 0.758 | 0.903 | 0.805 | 1 | 0.981 | 1.06 | 0.976 | 0.382 | 0.325 | 0.356 | 0.3 | 0.756 | 0.674 | 0.618 | 0.482 | 0.374 | 0.703
NCI-H1915 | 0.943 | 0.951 | 1.05 | 0.934 | 1.12 | 1.03 | 1.16 | 1.09 | 0.517 | 0.489 | 0.496 | 0.522 | 0.973 | 1.04 | 0.915 | 0.953 |  | 
EPLC-272H | 1 | 0.934 | 1.03 | 0.877 | 0.722 | 0.667 | 0.831 | 0.697 | 0.288 | 0.291 | 0.299 | 0.261 | 0.837 | 0.904 | 1.01 | 0.781 |  | 
ChaGo-K-1 | 0.767 |  | 0.892 | 1.16 | 1.01 | 0.872 | 0.978 | 0.996 | 0.9 | 0.939 | 0.909 | 0.912 | 1.04 | 0.863 | 0.956 | 0.738 | 0.868 | 
NCI-H3122 | 0.998 | 0.972 | 1.04 | 0.958 | 0.933 | 0.978 | 0.989 | 0.946 | 0.176 | 0.17 | 0.198 | 0.236 | 1 | 0.965 | 0.972 | 1.02 | 0.185 | 0.927
IA-LM | 0.942 | 0.713 | 0.91 | 0.724 | 1.23 | 1.01 | 1.11 | 1.03 |  |  |  |  | 0.788 | 0.893 | 0.88 | 0.839 |  | 0.787
EMC-BAC-2 | 0.913 | 0.926 | 0.998 | 0.943 | 0.946 | 0.964 | 0.967 | 0.561 | 0.459 | 0.524 | 0.536 | 0.539 | 0.999 | 1.07 | 0.991 | 0.87 |  | 0.871
NCI-H522 |  |  |  |  |  |  |  |  | 0.749 | 0.954 | 1.02 | 0.777 |  |  |  |  |  | 
NCI-H1734 | 0.906 | 0.778 | 0.992 | 0.914 | 0.808 | 0.839 | 0.922 | 0.962 | 0.271 | 0.31 | 0.332 | 0.303 | 0.839 | 1.02 | 0.993 | 0.862 |  | 
LC-2-ad | 1.1 | 1.03 | 1.11 | 1.01 | 0.936 | 0.947 | 1.02 | 0.947 | 0.522 | 0.527 | 0.501 | 0.476 | 0.936 | 0.994 | 1.14 | 0.96 |  | 
